According to PubChem BioAssay (NCI):
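Grown in 96-well plates, cells were treated for 48 hours with each compound at five concentrations. Insufficient inhibition: endpoint recorded as highest concentration tested. GI50 marks 50% less growth. TGI marks complete inhibition of growth.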

Tests used:
Test in all cases: NCI-60 cell line screen, 48 h
786-0 renal = test system: 786-0 renal
A498 renal = test system: A498 renal
A549 NSCLC = test system: A549 NSCLC
ACHN renal = test system: ACHN renal
BT-549 breast = test system: BT-549 breast
CAKI-1 renal = test system: CAKI-1 renal
CCRF-CEM leukemia = test system: CCRF-CEM leukemia
COLO 205 colon = test system: COLO 205 colon
DU-145 prostate = test system: DU-145 prostate
EKVX NSCLC = test system: EKVX NSCLC
HCT-116 colon = test system: HCT-116 colon
HCT-15 colon = test system: HCT-15 colon
HL-60(TB) leukemia = test system: HL-60(TB) leukemia
HOP-62 NSCLC = test system: HOP-62 NSCLC
HOP-92 NSCLC = test system: HOP-92 NSCLC
HT29 colon = test system: HT29 colon
IGROV1 ovarian = test system: IGROV1 ovarian
K-562 leukemia = test system: K-562 leukemia
KM12 colon = test system: KM12 colon
LOX IMVI melanoma = test system: LOX IMVI melanoma
M14 melanoma = test system: M14 melanoma
MCF7 breast = test system: MCF7 breast
MDA-MB-231 breast = test system: MDA-MB-231 breast
MOLT-4 leukemia = test system: MOLT-4 leukemia
NCI-H226 lung = test system: NCI-H226 lung
NCI-H23 lung = test system: NCI-H23 lung
OVCAR-4 ovarian = test system: OVCAR-4 ovarian
OVCAR-5 ovarian = test system: OVCAR-5 ovarian
OVCAR-8 ovarian = test system: OVCAR-8 ovarian
PC-3 prostate = test system: PC-3 prostate
RPMI-8226 leukemia = test system: RPMI-8226 leukemia
RXF 393 renal = test system: RXF 393 renal
SF-295 CNS = test system: SF-295 CNS
SK-MEL-2 melanoma = test system: SK-MEL-2 melanoma
SK-MEL-28 melanoma = test system: SK-MEL-28 melanoma
SK-MEL-5 melanoma = test system: SK-MEL-5 melanoma
SK-OV-3 ovarian = test system: SK-OV-3 ovarian
SN12C renal = test system: SN12C renal
SNB-19 CNS = test system: SNB-19 CNS
SNB-75 CNS = test system: SNB-75 CNS
SR leukemia = test system: SR leukemia
SW-620 colon = test system: SW-620 colon
T-47D breast = test system: T-47D breast
TK-10 renal = test system: TK-10 renal
U251 CNS = test system: U251 CNS
UACC-257 melanoma = test system: UACC-257 melanoma
UO-31 renal = test system: UO-31 renal
MALME-3M melanoma = test system: MALME-3M melanoma
MDA-MB-435 = test system: MDA-MB-435
NCI-H460 lung = test system: NCI-H460 lung
NCI-H522 lung = test system: NCI-H522 lung
NCI/ADR-RES ovarian = test system: NCI/ADR-RES ovarian
OVCAR-3 ovarian = test system: OVCAR-3 ovarian
SF-268 CNS = test system: SF-268 CNS
UACC-62 melanoma = test system: UACC-62 melanoma

Compound: COc1cccc(C(C#N)NNC(=O)c2c(Cl)c(Cl)c(Cl)c(Cl)c2-c2nc3ccc(C(=O)c4ccccc4)cc3[nH]2)c1O (centres undefined)
- TGI (786-0 renal): > 100 µM
- TGI (A498 renal): 7.29 µM
- TGI (A549 NSCLC): > 100 µM
- TGI (ACHN renal): > 100 µM
- TGI (BT-549 breast): > 100 µM
- TGI (CAKI-1 renal): > 100 µM
- TGI (CCRF-CEM leukemia): > 100 µM
- TGI (COLO 205 colon): > 100 µM
- TGI (DU-145 prostate): > 100 µM
- TGI (EKVX NSCLC): > 100 µM
- TGI (HCT-116 colon): > 100 µM
- TGI (HCT-15 colon): > 100 µM
- TGI (HL-60(TB) leukemia): > 100 µM
- TGI (HOP-62 NSCLC): 8.59 µM
- TGI (HOP-92 NSCLC): > 100 µM
- TGI (HT29 colon): > 100 µM
- TGI (IGROV1 ovarian): > 100 µM
- TGI (K-562 leukemia): > 100 µM
- TGI (KM12 colon): > 100 µM
- TGI (LOX IMVI melanoma): > 100 µM
- TGI (M14 melanoma): 25.1 µM
- TGI (MCF7 breast): > 100 µM
- TGI (MDA-MB-231 breast): > 100 µM
- TGI (MOLT-4 leukemia): > 100 µM
- TGI (NCI-H226 lung): 8.43 µM
- TGI (NCI-H23 lung): > 100 µM
- TGI (OVCAR-4 ovarian): > 100 µM
- TGI (OVCAR-5 ovarian): 70.1 µM
- TGI (OVCAR-8 ovarian): > 100 µM
- TGI (PC-3 prostate): > 100 µM
- TGI (RPMI-8226 leukemia): > 100 µM
- TGI (RXF 393 renal): 9.03 µM
- TGI (SF-295 CNS): 4.69 µM
- TGI (SK-MEL-2 melanoma): 29.4 µM
- TGI (SK-MEL-28 melanoma): > 100 µM
- TGI (SK-MEL-5 melanoma): 10.5 µM
- TGI (SK-OV-3 ovarian): > 100 µM
- TGI (SN12C renal): 7.79 µM
- TGI (SNB-19 CNS): 24.7 µM
- TGI (SNB-75 CNS): 7.46 µM
- TGI (SR leukemia): > 100 µM
- TGI (SW-620 colon): > 100 µM
- TGI (T-47D breast): > 100 µM
- TGI (TK-10 renal): > 100 µM
- TGI (U251 CNS): > 100 µM
- TGI (UACC-257 melanoma): > 100 µM
- TGI (UO-31 renal): > 100 µM

Compound: N#C/C(=C/N1CCN(C(=O)c2ccco2)C1=S)C(=O)Nc1ccc(Cl)cc1
- GI50 (786-0 renal): 17.4 µM
- TGI (786-0 renal): > 50 µM
- GI50 (A549 NSCLC): 25.8 µM
- TGI (A549 NSCLC): > 50 µM
- GI50 (ACHN renal): 15.3 µM
- TGI (ACHN renal): 42.2 µM
- GI50 (BT-549 breast): 8.63 µM
- TGI (BT-549 breast): 21.9 µM
- GI50 (CAKI-1 renal): 13.2 µM
- TGI (CAKI-1 renal): > 50 µM
- GI50 (CCRF-CEM leukemia): 22.5 µM
- TGI (CCRF-CEM leukemia): > 50 µM
- GI50 (COLO 205 colon): 25.6 µM
- TGI (COLO 205 colon): > 50 µM
- GI50 (DU-145 prostate): 15.9 µM
- TGI (DU-145 prostate): > 50 µM
- GI50 (HCT-116 colon): 15.2 µM
- TGI (HCT-116 colon): > 50 µM
- GI50 (HCT-15 colon): 21.3 µM
- TGI (HCT-15 colon): > 50 µM
- GI50 (HL-60(TB) leukemia): 10.5 µM
- TGI (HL-60(TB) leukemia): 28.7 µM
- GI50 (HOP-62 NSCLC): 25.7 µM
- TGI (HOP-62 NSCLC): > 50 µM
- GI50 (HOP-92 NSCLC): 21.5 µM
- TGI (HOP-92 NSCLC): > 50 µM
- GI50 (HT29 colon): 21.4 µM
- TGI (HT29 colon): > 50 µM
- GI50 (IGROV1 ovarian): 25.3 µM
- TGI (IGROV1 ovarian): > 50 µM
- GI50 (K-562 leukemia): 16.1 µM
- TGI (K-562 leukemia): > 50 µM
- GI50 (KM12 colon): 16.3 µM
- TGI (KM12 colon): > 50 µM
- GI50 (LOX IMVI melanoma): 16.7 µM
- TGI (LOX IMVI melanoma): > 50 µM
- GI50 (M14 melanoma): 14.2 µM
- TGI (M14 melanoma): > 50 µM
- GI50 (MALME-3M melanoma): 21.4 µM
- TGI (MALME-3M melanoma): > 50 µM
- GI50 (MCF7 breast): 21 µM
- TGI (MCF7 breast): > 50 µM
- GI50 (MDA-MB-231 breast): 18.4 µM
- TGI (MDA-MB-231 breast): > 50 µM
- GI50 (MDA-MB-435): 15.2 µM
- TGI (MDA-MB-435): > 50 µM
- GI50 (MOLT-4 leukemia): 17.8 µM
- TGI (MOLT-4 leukemia): > 50 µM
- GI50 (NCI-H23 lung): 12.3 µM
- TGI (NCI-H23 lung): 33.5 µM
- GI50 (NCI-H460 lung): 19.9 µM
- TGI (NCI-H460 lung): > 50 µM
- GI50 (NCI-H522 lung): 16.7 µM
- TGI (NCI-H522 lung): 30.2 µM
- GI50 (NCI/ADR-RES ovarian): 28.1 µM
- TGI (NCI/ADR-RES ovarian): > 50 µM
- GI50 (OVCAR-3 ovarian): 15.5 µM
- TGI (OVCAR-3 ovarian): > 50 µM
- GI50 (OVCAR-4 ovarian): 25.2 µM
- TGI (OVCAR-4 ovarian): > 50 µM
- GI50 (OVCAR-8 ovarian): 20.6 µM
- TGI (OVCAR-8 ovarian): > 50 µM
- GI50 (PC-3 prostate): 18.9 µM
- TGI (PC-3 prostate): > 50 µM
- GI50 (RPMI-8226 leukemia): 10.5 µM
- TGI (RPMI-8226 leukemia): 32.2 µM
- GI50 (RXF 393 renal): 13.1 µM
- TGI (RXF 393 renal): 44.9 µM
- GI50 (SF-268 CNS): 17.8 µM
- TGI (SF-268 CNS): 41 µM
- GI50 (SF-295 CNS): 20.2 µM
- TGI (SF-295 CNS): > 50 µM
- GI50 (SK-MEL-2 melanoma): 16.7 µM
- TGI (SK-MEL-2 melanoma): 39.7 µM
- GI50 (SK-MEL-28 melanoma): 18.7 µM
- TGI (SK-MEL-28 melanoma): > 50 µM
- GI50 (SK-MEL-5 melanoma): 11.2 µM
- TGI (SK-MEL-5 melanoma): 24.7 µM
- GI50 (SK-OV-3 ovarian): 41.2 µM
- TGI (SK-OV-3 ovarian): > 50 µM
- GI50 (SN12C renal): 11.8 µM
- TGI (SN12C renal): 37.2 µM
- GI50 (SNB-19 CNS): 27.6 µM
- TGI (SNB-19 CNS): > 50 µM
- GI50 (SNB-75 CNS): > 50 µM
- TGI (SNB-75 CNS): > 50 µM
- GI50 (SR leukemia): 1.56 µM
- TGI (SR leukemia): 21.3 µM
- GI50 (SW-620 colon): 17.3 µM
- TGI (SW-620 colon): > 50 µM
- GI50 (T-47D breast): > 50 µM
- TGI (T-47D breast): > 50 µM
- GI50 (TK-10 renal): 19.4 µM
- TGI (TK-10 renal): > 50 µM
- GI50 (U251 CNS): 17.3 µM
- TGI (U251 CNS): > 50 µM
- GI50 (UACC-257 melanoma): 16.5 µM
- TGI (UACC-257 melanoma): 48.4 µM
- GI50 (UACC-62 melanoma): 16.9 µM
- TGI (UACC-62 melanoma): > 50 µM
- GI50 (UO-31 renal): 12 µM
- TGI (UO-31 renal): 26.6 µM
